Reference: patent US5731334A, “Method for treating cancer using taxoid onium salt prodrugs” (priority 1995, dated 1998)

System: tubulin
Experiment: Tubulin polymerization-depolymerization (microtubule assembly-disassembly) assay
Format: biochemical, calf
Conditions: CaCl2; 10^-6 M drug; 37° C.; in words

CC(=O)O[C@H]1C(=O)[C@@]2(C)[C@H]([C@H](OC(=O)c3ccsc3)[C@]3(O)C[C@H](OC(=O)[C@H](O)[C@@H](NC(=O)c4ccccc4)c4ccccc4)C(C)=C1C3(C)C)[C@]1(OC(C)=O)CO[C@@H]1C[C@@H]2O [C-2-substituted thiophene derivative]
inhibition of calcium chloride induced depolymerization of microtubules: inhibited depolymerization similar to taxol
